# Measured values taken from patent US20230303540A1 (Merck Sharp & Dohme LLC, priority 2020, published 2023).
# Molecular target: GST-tagged truncated human mutant G2019S LRRK2 (Homo sapiens, UniProt Q5S007, G2019S)
# Experiment: LRRK2 G2019S Km ATP LanthaScreen assay
# Type: biochemical
# Details: 134 μM ATP (Km ATP), LRRKtide substrate, mean IC50 values; read-out: LRRK2 pIC50 (converted)
# Method in brief: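 LanthaScreen TR-FRET read with fluorescein-LRRKtide and 134 μM ATP (Km) in Tris pH 8.5/10 mM MgCl2 buffer. The enzyme was preincubated 15 min with compound at room temperature, and the reaction ran 90 min at ambient temperature. Stopped with EDTA plus Tb anti-phospho-LRRKtide antibody; the 520/495 nm ratio gave a 4-parameter logistic IC50, mean of several runs.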
row,SMILES,IC50 [nM]
1,"C[C@]1(O)[C@@H]2CC[C@H]1CN(c1cc3nc(Nc4cnn(C5CC5(F)F)c4Cl)ncc3cc1Cl)C2 (single isomer, unassigned) [Ex-3.41, (R) or (S) (8-syn)-3-(6-chloro-2-{[5-chloro-1-(2,2-difluorocyclopropyl)-1H-pyrazol-4-yl]amino}quinazolin-7-yl)-8-methyl-3-azabicyclo[3.2.1]octan-8-ol]",23
2,"Cc1cc2cnc(Nc3cnn(C4(C)CC4)c3Cl)nc2cc1N1CCN(C2(C)COC2)CC1 [Ex-5.9, N-[5-chloro-1-(1-methylcyclopropyl)-1H-pyrazol-4-yl]-6-methyl-7-[4-(3-methyloxetan-3-yl)piperazin-1-yl]quinazolin-2-amine]",0.64
3,"CC1(N2CCN(c3cc4cc(Nc5cnn(C6CC6(F)F)c5Cl)ncc4cc3Cl)CC2)COCC1O (single isomer, unassigned) [Ex-6.52, (3S,4S) or (3R,4R) 4-(4-(7-chloro-3-((5-chloro-1-(2,2-difluorocyclopropyl)-1H-pyrazol-4-yl)amino)isoquinolin-6-yl)piperazin-1-yl)-4-methyltetrahydrofuran-3-ol]",3.12
4,"Cc1c(Nc2ncc3cc(Cl)c(N4CCC(C)(O)CC4)cc3n2)cnn1C(C)(C)C#N [Ex-6.15, 2-(4-{[6-chloro-7-(4-hydroxy-4-methylpiperidin-1-yl)quinazolin-2-yl]amino}-5-methyl-1H-pyrazol-1-yl)-2-methylpropanenitrile]",3.57
5,"Clc1cc2cnc(Nc3cnn(C45CC(C4)C5)c3Cl)nc2cc1N1CCC2(CCCO2)CC1 [Ex-3.40, N-[1-(bicyclo[1.1.1]pentan-1-yl)-5-chloro-1H-pyrazol-4-yl]-6-chloro-7-(1-oxa-8-azaspiro[4.5]decan-8-yl) quinazolin-2-amine]",9.76
6,"Cc1c(Nc2ncc3cc(Cl)c(N4CCN(C5COCC5O)CC4)cc3n2)cnn1CC(F)F (single isomer, unassigned) [Ex-6.25, (3S,4S) or (3R,4R) 4-[4-(6-chloro-2-{[1-(2,2-difluoroethyl)-5-methyl-1H-pyrazol-4-yl]amino}quinazolin-7-yl)piperazin-1-yl]oxolan-3-ol]",0.418
7,"COCC12CC(n3cc(Nc4ncc5cc(Cl)c(N6CCC7(CCCO7)CC6)cc5n4)cn3)(C1)C2 [Ex-3.34, 6-chloro-N-{1-[3-(methoxymethyl)bicyclo[1.1.1]pentan-1-yl]-1H-pyrazol-4-yl}-7-(1-oxa-8-azaspiro [4.5]decan-8-yl)quinazolin-2-amine]",0.594
8,"CC1(N2CCN(c3cc4nc(Nc5cnn(CC(F)(F)F)c5)ncc4cc3Cl)CC2)COC1 [Ex-4.19, 6-chloro-7-[4-(3-methyloxetan-3-yl)piperazin-1-yl]-N-[1-(2,2,2-trifluoroethyl)-1H-pyrazol-4-yl]quinazolin-2-amine]",3.03
9,"CC1(N2CCN(c3cc4cc(Nc5cnn(C6CC6)c5Cl)ncc4cc3Cl)CC2)COCC1O (single isomer, unassigned) [Ex-6.54, (3S,4S) or (3R,4R) 4-(4-(7-chloro-3-((5-chloro-1-cyclopropyl-1H-pyrazol-4-yl)amino)isoquinolin-6-yl)piperazin-1-yl)-4-methyltetrahydrofuran-3-ol]",1.21
10,"Cn1ncc(Nc2ncc3ccc(N4C(=O)C5CCC4C5)cc3n2)c1C(F)F (single isomer, unassigned) [Ex-4.6, 2-(2-{[5-(difluoromethyl)-1-methyl-1H-pyrazol-4-yl]amino}quinazolin-7-yl)-2-azabicyclo[2.2.1]heptan-3-one]",34.9
11,"CC1(N2CCN(c3cc4nc(Nc5cnn(C6CC6(F)F)c5Cl)ncc4cc3Cl)CC2)COCC1O (single isomer, unassigned) [Ex-6.35, (3S,4S) or (3R,4R) 4-[4-(6-chloro-2-{[5-chloro-1-(2,2-(R) or (S)difluorocyclopropyl)-1H-pyrazol-4-yl]amino}quinazolin-7-yl)piperazin-1-yl]-4-methyloxolan-3-ol]",20.8
12,"Cc1c(Nc2cc3cc(N4CCN(C5(C)COCC5O)CC4)c(Cl)cc3cn2)cnn1C1CC1 (single isomer, unassigned) [Ex-6.51, (3S,4S) or (3R,4R) 4-(4-(7-chloro-3-((1-cyclopropyl-5-methyl-1H-pyrazol-4-yl)amino)isoquinolin-6-yl)piperazin-1-yl)-4-methyltetrahydrofuran-3-ol]",1.35
13,"Cc1c(Nc2ncc3ccc(N4C(=O)OCC4C4CC4)cc3n2)cnn1C1CCOCC1 (single isomer, unassigned) [Ex-7.14, (R) or (S) 4-cyclopropyl-3-(2-{[5-methyl-1-(oxan-4-yl)-1H-pyrazol-4-yl]amino}quinazolin-7-yl)-1,3-oxazolidin-2-one]",0.749
14,"COCC12CC(n3cc(Nc4ncc5cc(Cl)c(N(C)C)cc5n4)cn3)(C1)C2 [Ex-3.18, 6-chloro-N-2-{1-[3-(methoxymethyl)bicyclo[1.1.1]pentan-1-yl]-1H-pyrazol-4-yl}-N-7-,N-7-dimethylquinazoline-2,7-diamine]",1.95
15,"OC1COCC12CCN(c1cc3nc(Nc4cnn(C5CC5(F)F)c4Cl)ncc3cc1Cl)CC2 (single isomer, unassigned) [Ex-3.57]",23.1
16,"CC1(n2ncc(Nc3ncc4cc(Cl)c(N5CCC(N6CC(F)C6)CC5)cc4n3)c2Cl)CC1 [Ex-4.39, 6-chloro-N-[5-chloro-1-(1-methylcyclopropyl)-1H-pyrazol-4-yl]-7-[4-(3-fluoroazetidin-1-yl)piperidin-1-yl]quinazolin-2-amine]",0.625
17,"CC1(N2CCN(c3cc4nc(Nc5cnn(C6CC6(F)F)c5Cl)ncc4cc3Cl)CC2)COC1 (single isomer, unassigned) [Ex-4.61, 6-chloro-N-[5-chloro-1-(2,2-(R) or (S)difluorocyclopropyl)-1H-pyrazol-4-yl]-7-[4-(3-methyloxetan-3-yl)piperazin-1-yl]quinazolin-2-amine]",7.3
18,"CC1(N2CCN(c3cc4nc(Nc5cnn(CC6C[C@H](F)[C@@H](F)C6)c5)ncc4cc3Cl)CC2)COC1 [Ex-4.66, 6-chloro-N-(1-{[(3S,4S)-3,4-difluorocyclopentyl]methyl}-1H-pyrazol-4-yl)-7-[4-(3-methyloxetan-3-yl)piperazin-1-yl]quinazolin-2-amine]",8.88
19,"Cc1cc(Nc2ncc3ccc(N4C(=O)OC[C@@H]4C)cc3n2)n(C)n1 [Ex-8.1, (4S)-3-{2-[(1,3-dimethyl-1H-pyrazol-5-yl)amino]quinazolin-7-yl}-4-methyl-1,3-oxazolidin-2-one]",4.41
20,"Cc1cc2cnc(Nc3cnn(C)c3C)nc2cc1N1CCN([C@]2(C)COC[C@@H]2O)CC1 [Ex-2.1, (3R,4R)-4-(4-(2-((1,5-Dimethyl-1H-pyrazol-4-yl)amino)-6-methylquinazolin-7-yl)piperazin-1-yl)-4-methyltetrahydrofuran-3-ol]",0.576
21,"Cc1cc2cnc(Nc3cnn(C45CC(C4)C5)c3Cl)nc2cc1N1CC2(C1)CN(C1COCC1O)C2 (single isomer, unassigned) [Ex-5.16, (3R,4R) or (3S,4S) 4-(6-(2-((1-(bicyclo[1.1.1]pentan-1-yl)-5-chloro-1H-pyrazol-4-yl)amino)-6-methylquinazolin-7-yl)-2,6-diazaspiro[3.3]heptan-2-yl)tetrahydrofuran-3-ol]",20.9
22,"CC1(n2ncc(Nc3ncc4cc(Cl)c(N5CCC(N6CC(F)(F)C6)CC5)cc4n3)c2Cl)CC1 [Ex-4.32, 6-chloro-N-[5-chloro-1-(1-methylcyclopropyl)-1H-pyrazol-4-yl]-7-[4-(3,3-difluoroazetidin-1-yl)piperidin-1-yl]quinazolin-2-amine]",2.02
23,"COCC12CC(n3ncc(Nc4ncc5cc(Cl)c(N6C[C@H]7CC[C@@H](C6)[C@@]7(C)O)cc5n4)c3Cl)(C1)C2 [Ex-3.1, (Endo)-3-(6-chloro-2-((5-chloro-1-(3-(methoxymethyl)bicyclo[1.1.1]pentan-1-yl)-1H-pyrazol-4-yl)amino)quinazolin-7-yl)-8-methyl-3-azabicyclo[3.2.1]octan-8-ol]",0.093
24,"Cc1cc2cnc(Nc3cnn(C4CC4)c3Cl)nc2cc1N1CCC(C)(O)CC1 [Ex-3.55, 1-{2-[(5-chloro-1-cyclopropyl-1H-pyrazol-4-yl)amino]-6-methylquinazolin-7-yl}-4-methylpiperidin-4-ol]",12.1
25,"Cc1c(Nc2ncc3cc(Cl)c(N4CCN(C5(C)COCC5O)CC4)cc3n2)cnn1C1CC1(F)F (single isomer, unassigned) [Ex-6.40, (3S,4S) or (3R,4R) 4-[4-(6-chloro-2-{[1-(2,2-(R) or (S)difluorocyclopropyl)-5-methyl-1H-pyrazol-4-yl]amino}quinazolin-7-yl)piperazin-1-yl]-4-methyloxolan-3-ol]",0.352
26,"Cc1c(Nc2ncc3cc(Cl)c(N4CCN(C5COCC5O)CC4)cc3n2)cnn1CC(F)(F)F (single isomer, unassigned) [Ex-6.32, (3S,4S) or (3R,4R) 4-[4-(6-chloro-2-{[5-methyl-1-(2,2,2-trifluoroethyl)-1H-pyrazol-4-yl]amino}quinazolin-7-yl)piperazin-1-yl]oxolan-3-ol]",0.608
27,"CC1(N2CCN(c3cc4nc(Nc5cnn(C(C)(C)C)c5Cl)ncc4cc3Cl)CC2)COC1 [Ex-4.31, N-(1-tert-butyl-5-chloro-1H-pyrazol-4-yl)-6-chloro-7-[4-(3-methyloxetan-3-yl)piperazin-1-yl]quinazolin-2-amine]",1.01
28,"Cc1c(Nc2ncc3cc(Cl)c(N4CCN(C5(C)COCC5O)CC4)cc3n2)cnn1C1CC1(F)F (single isomer, unassigned) [Ex-6.38, (3S,4S) or (3R,4R) 4-[4-(6-chloro-2-{[1-(2,2-(R) or (S)difluorocyclopropyl)-5-methyl-1H-pyrazol-4-yl]amino}quinazolin-7-yl)piperazin-1-yl]-4-methyloxolan-3-ol]",0.835
